The test system of experiment [1] is MCF7. Briefly: Antiproliferative activity against human MCF7 cells after 48 hrs by MTT assay. To be noted: MCF7, 48 h. Type of experiment: functional, cell-based. In general terms: Tetrazolium assays rely on reduction of a dye to a coloured formazan, in cell work by metabolically active cells.
In experiment [2] the target is T1, DNA topoisomerase 2-beta (Homo sapiens, UniProt Q02880). Put plainly: Potency index, ratio of etopside IC50 to compound IC50 for topoisomerase 2beta in human MCF7 cells. Type of experiment: cell-based.
For experiment [3], the system named is MCF7. Put plainly: Down regulation of Bcl-2 level in human MCF7 cells at IC50 incubated for 24 hrs by ELISA. It is filed as functional, cell-based.
Experiment [4] relates to MCF7. Briefly: Upregulation of p53 level in human MCF7 cells at IC50 incubated for 24 hrs by ELISA relative to podophyllotoxin. It is filed as functional.
Experiment [5] deals with MCF7. Briefly: Induction of apoptosis in human MCF7 cells assessed as necrotic cells at IC50 after 24 hrs by annexin V/FITC-propidium iodide staining-based flow cytometric method (reference value: 0.53%). It is filed as functional. For orientation: A flow cytometer gives signals particle by particle.
The test system of experiment [6] is MCF7. Put plainly: Induction of apoptosis in human MCF7 cells assessed as viable cells at IC50 after 24 hrs by annexin V/FITC-propidium iodide staining-based flow cytometric method (reference value: 96.57%). Type of experiment: functional.
Experiment [7] concerns MCF7. Put plainly: Inhibition of tubulin beta polymerization in human MCF7 cells at IC50 after 18 to 24 hrs by spectrophotometric method relative to control. Type of experiment: cell-based.
The test system of experiment [8] is MCF7. Put plainly: Upregulation of Bax level in human MCF7 cells at IC50 incubated for 24 hrs by ELISA relative to control. It is filed as functional.
A short description of experiment [9]: Antiproliferative activity against human Hs 371.T cells after 48 hrs by MTT assay. It is filed as cell-based.
Experiment [10] has as its system MCF7. Put plainly: Upregulation of p53 level in human MCF7 cells at IC50 incubated for 24 hrs by ELISA relative to control. It is filed as functional. (In general: An ELISA detects its analyte on a solid surface through an enzyme-linked reagent.)
Experiment [11] has as its target T1, DNA topoisomerase 2-beta. Briefly: Inhibition of human DNA topoisomerase 2beta after 2 hrs by ELISA.
Experiment [12] concerns MCF7. Briefly: Increase in Bax/Bcl-2 ratio in human MCF7 cells at IC50 incubated for 24 hrs by ELISA. Type of experiment: functional, cell-based.
In experiment [13] the test system is MCF7. Put plainly: Cell cycle arrest in human MCF7 cells assessed as accumulation at G2 phase at IC50 after 24 hrs by propidium iodide staining-based flow cytometric analysis. Type of experiment: functional.
Experiment [14] deals with MCF7. Put plainly: Cell cycle arrest in human MCF7 cells assessed as increase in accumulation at G0 phase at IC50 after 24 hrs by propidium iodide staining-based flow cytometric analysis. It is filed as functional.
The test system of experiment [15] is MCF7. Briefly: Potency index, ratio of ratio of compound effect to podophyllotoxin efect for induction of apoptosis in human MCF7 cells. Type of experiment: functional.
For experiment [16], the system named is MCF7. Briefly: Potency index, ratio of podophyllotoxin IC50 to compound IC50 for human MCF7 cells. Type of experiment: functional.
Experiment [17] concerns MCF7. Put plainly: Cell cycle arrest in human MCF7 cells assessed as decrease in accumulation at G1 phase at IC50 after 24 hrs by propidium iodide staining-based flow cytometric analysis. It is filed as functional.
Experiment [18] deals with MCF7. Put plainly: Induction of apoptosis in human MCF7 cells assessed as early apoptotic cells at IC50 after 24 hrs by annexin V/FITC-propidium iodide staining-based flow cytometric method (reference value: 0.72%). Type of experiment: functional.
In experiment [19] the test system is MCF7. Put plainly: Induction of apoptosis in human MCF7 cells assessed as late apoptotic cells at IC50 after 24 hrs by annexin V/FITC-propidium iodide staining-based flow cytometric method (reference value: 0.34%). It is filed as functional.
Experiment [20] concerns MCF7. Put plainly: Upregulation of caspase3/7 level in human MCF7 cells at IC50 incubated for 24 hrs by green flow cytometric analysis relative to control. Type of experiment: functional.
Experiment [21] has as its system MCF7. Put plainly: Upregulation of caspase3/7 level in human MCF7 cells at IC50 assessed as caspase 3/7 green fluorescence incubated for 24 hrs by green flow cytometric analysis (reference value: 0.49%). It is filed as functional.
Experiment [22] has as its system MCF7. Put plainly: Potency index, ratio of ratio of compound effect to podophyllotoxin efect for cell cycle arrest in human MCF7 cells assessed as increase in cell percentage at G0 phase at IC50 after 24 hrs by propidium iodide staining-based flow cytometric analysis. Type of experiment: functional.

The structures appear in SMILES notation. Active and inactive are the calls of the source. The rule behind the calls is not given here.

The term IC50 denotes the midpoint of a concentration-inhibition curve. A high value points to weaker potency in that assay. The inhibition is the percentage by which the read-out fell short of the control. Low values mean a response near the control, high ones a response far below the control.

T1 sequence (Q02880 whole entry): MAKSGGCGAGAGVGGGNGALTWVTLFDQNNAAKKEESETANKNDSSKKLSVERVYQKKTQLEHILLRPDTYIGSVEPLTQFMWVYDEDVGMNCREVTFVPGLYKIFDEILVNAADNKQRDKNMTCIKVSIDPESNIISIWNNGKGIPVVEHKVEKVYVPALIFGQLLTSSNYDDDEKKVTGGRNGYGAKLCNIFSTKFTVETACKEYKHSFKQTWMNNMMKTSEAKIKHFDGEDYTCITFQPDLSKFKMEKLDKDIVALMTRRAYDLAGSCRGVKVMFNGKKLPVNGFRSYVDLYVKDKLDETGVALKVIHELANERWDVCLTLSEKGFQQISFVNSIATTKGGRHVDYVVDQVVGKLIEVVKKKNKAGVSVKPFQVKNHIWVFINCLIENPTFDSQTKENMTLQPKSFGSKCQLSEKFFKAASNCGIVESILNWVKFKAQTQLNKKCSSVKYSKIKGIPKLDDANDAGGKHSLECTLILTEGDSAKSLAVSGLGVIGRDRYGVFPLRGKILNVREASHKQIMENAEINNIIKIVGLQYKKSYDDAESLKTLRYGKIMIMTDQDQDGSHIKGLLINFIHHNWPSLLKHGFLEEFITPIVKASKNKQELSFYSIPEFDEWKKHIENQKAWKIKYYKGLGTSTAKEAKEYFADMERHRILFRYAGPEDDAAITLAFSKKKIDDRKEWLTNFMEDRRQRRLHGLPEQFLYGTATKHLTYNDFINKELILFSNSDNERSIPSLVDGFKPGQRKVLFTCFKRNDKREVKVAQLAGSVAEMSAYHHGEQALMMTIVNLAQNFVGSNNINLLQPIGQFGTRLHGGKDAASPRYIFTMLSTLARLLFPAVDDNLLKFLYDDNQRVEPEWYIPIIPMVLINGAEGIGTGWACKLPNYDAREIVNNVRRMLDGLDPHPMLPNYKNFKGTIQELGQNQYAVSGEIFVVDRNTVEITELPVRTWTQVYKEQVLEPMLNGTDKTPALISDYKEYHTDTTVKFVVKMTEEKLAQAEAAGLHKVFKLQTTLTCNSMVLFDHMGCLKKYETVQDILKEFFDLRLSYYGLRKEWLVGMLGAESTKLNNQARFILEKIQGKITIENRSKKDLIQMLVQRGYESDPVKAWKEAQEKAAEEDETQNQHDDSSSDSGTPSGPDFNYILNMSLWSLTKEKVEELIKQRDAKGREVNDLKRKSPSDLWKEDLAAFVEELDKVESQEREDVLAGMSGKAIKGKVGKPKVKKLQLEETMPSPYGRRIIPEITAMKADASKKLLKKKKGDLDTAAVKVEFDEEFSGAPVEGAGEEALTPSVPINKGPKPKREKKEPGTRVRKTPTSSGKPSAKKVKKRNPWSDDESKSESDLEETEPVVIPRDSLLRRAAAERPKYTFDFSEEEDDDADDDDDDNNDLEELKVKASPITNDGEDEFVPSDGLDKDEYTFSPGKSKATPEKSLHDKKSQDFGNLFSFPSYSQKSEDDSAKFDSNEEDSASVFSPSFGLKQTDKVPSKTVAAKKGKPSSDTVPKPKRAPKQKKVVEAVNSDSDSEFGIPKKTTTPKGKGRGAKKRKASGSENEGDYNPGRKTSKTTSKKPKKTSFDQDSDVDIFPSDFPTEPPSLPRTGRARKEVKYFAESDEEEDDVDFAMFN

`COc1ccc(C2=N/C(=C\c3cc(Br)cc(Br)c3OC(C)=O)C(=O)NN2c2ncc(-c3ccccc3)s2)cc1OC` had an IC50 with MCF7 [1] of 4.33 µM.
The same measure, in the same setting: under `COc1ccc(C2=N/C(=C\c3cc(Br)cc(Br)c3OC(C)=O)C(=O)n3c(C)nc(=S)n32)cc1OC` stands 6.84 µM.
On the same count and under the same terms, under `CC(=O)Oc1c(Br)cc(Br)cc1/C=C1\N=C(c2ccccc2)n2c(=S)nc(C)n2C1=O` stands greater than 100 µM.
For the compound `COc1cc(C2=N/C(=C\c3cc(Br)cc(Br)c3OC(C)=O)C(=O)NN2C(N)=S)cc(OC)c1OC`, the Ratio IC50 at DNA topoisomerase 2-beta [2] was 2.2; with MCF7 [16] it was 6. For the same compound, the outcome with MCF7 [3], with MCF7 [12], with MCF7 [13], in the experiment on MCF7 [14] and with MCF7 [17] was Active. For the same compound, the “fold change (FC)” value with MCF7 [4] came to 1.7; in the experiment with MCF7 [8], 3.2; with MCF7 [10] it was 8.1; with MCF7 [20], 21.6. Moreover, the Activity in the experiment on MCF7 [5] is reported as 3.66%; in the experiment with MCF7 [6], 78.79%; in the experiment on MCF7 [18], 4.78%; with MCF7 [19], 10.88%; in the experiment with MCF7 [21] it was 8.69%. Also, in the experiment on MCF7 [7], the inhibition worked out at 44.4%. Besides, the figures for the concentration for half-maximal inhibition (IC50) (in [9]; on DNA topoisomerase 2-beta [11]; in the experiment with MCF7 [1]) were 61.3 µM, 0.0317 µM and 0.36 µM, respectively. Besides, the Ratio in the experiment on MCF7 [15] is listed as 1.25.
As to `COc1cc(C2=N/C(=C\c3cc(Br)cc(Br)c3OC(C)=O)C(=O)n3c(C)nc(=S)n32)cc(OC)c1OC`, the result in the experiment on MCF7 [3] was Active. For the same compound, the Activity was 1.73% in the experiment on MCF7 [5]; 88.4% in the experiment on MCF7 [6]; 3.38% with MCF7 [18]; 4.53% in the experiment with MCF7 [19]; 7.58% in the experiment on MCF7 [21]. The inhibition in the experiment with MCF7 [7] turned out to be 88.2%. Moreover, the “fold change (FC)” value is recorded as 0.9 in the experiment on MCF7 [8], 5.1 in the experiment on MCF7 [10] and 31.3 in the experiment on MCF7 [20]. The IC50 in [9] stood at 58.7 µM; on DNA topoisomerase 2-beta [11] it was 0.11 µM; in the experiment on MCF7 [1], 3.07 µM.
Consider `COc1ccc(C2=N/C(=C\c3cc(Br)cc(Br)c3OC(C)=O)C(=O)NN2C(N)=S)cc1OC`, for which, in the experiment with MCF7 [1], the IC50 turned out to be 13.4 µM.
On the same count and under the same terms, under `COc1ccc(C(=O)N/C(=C/c2cc(Br)cc(Br)c2OC(C)=O)C(=O)NNC(N)=S)cc1OC` stands 8.97 µM.
Same read-out and setting: in the case of `COc1ccc(C2=N/C(=C\c3cc(Br)cc(Br)c3OC(C)=O)C(=O)NN2c2ncc(-c3ccc(Br)cc3)s2)cc1OC` it was 3.28 µM; in that of `COc1cc(C2=N/C(=C\c3cc(Br)cc(Br)c3OC(C)=O)C(=O)NN2c2ncc(-c3ccc(Br)cc3)s2)cc(OC)c1OC`, 3.16 µM.
For `CC(=O)Oc1c(Br)cc(Br)cc1/C=C1\N=C(c2ccccc2)N(c2ncc(-c3ccccc3)s2)NC1=O`, half-maximal inhibition with MCF7 [1] (IC50) was put at 38.3 µM.
On to `COc1cc(C2=N/C(=C\c3cc(Br)cc(Br)c3OC(C)=O)C(=O)NN2c2ccccc2)cc(OC)c1OC`, for which the results for the Ratio IC50 at DNA topoisomerase 2-beta [2] and in the experiment on MCF7 [16] were 5.3 and 6, respectively. Moreover, the outcome in the experiment with MCF7 [3], in the experiment with MCF7 [12], with MCF7 [13], in the experiment with MCF7 [14] and in the experiment on MCF7 [17] was Active. The “fold change (FC)” value came to 2.1 in the experiment on MCF7 [4], 3.9 with MCF7 [8], 1.9 with MCF7 [10] and 18 in the experiment on MCF7 [20]. Moreover, the Activity stood at 3.14% in the experiment with MCF7 [5]; 81.41% in the experiment with MCF7 [6]; 5.47% in the experiment on MCF7 [18]; 7.85% in the experiment on MCF7 [19]; 11.28% in the experiment on MCF7 [21]. In the experiment on MCF7 [7], the inhibition worked out at 33.4%. The IC50 in experiment [9] was found to be 44.3 µM; against DNA topoisomerase 2-beta [11] it was 0.0126 µM; with MCF7 [1] it was 0.35 µM. The Ratio came to 1.4 in the experiment with MCF7 [22] and 1.5 with MCF7 [15].
Take `COc1cc(C(=O)N/C(=C/c2cc(Br)cc(Br)c2OC(C)=O)C(=O)NNC(N)=S)cc(OC)c1OC`: the outcome in the experiment with MCF7 [3] and with MCF7 [12] was Active. The Activity is 2.11% with MCF7 [5], 4.66% in the experiment on MCF7 [18], 5.62% in the experiment with MCF7 [19] and 6.91% with MCF7 [21]. The compound further displayed an inhibition with MCF7 [7] of 62.3%. In addition, the “fold change (FC)” value with MCF7 [8] was 2.2; with MCF7 [10], 4.2; in the experiment with MCF7 [20], 24.1. Also, the results for the IC50 at DNA topoisomerase 2-beta [11] and with MCF7 [1] were 0.0814 µM and 2.85 µM, respectively.
As for `COc1cc([C@@H]2c3cc4c(cc3[C@H](O)[C@H]3COC(=O)[C@H]23)OCO4)cc(OC)c1OC` [PODOFILOX], the Activity with MCF7 [5] was found to be 2.06%; with MCF7 [6], 84.61%; in the experiment with MCF7 [18], 4.19%; in the experiment with MCF7 [19] it was 7.02%; in the experiment on MCF7 [21] it was 7.58%. Also, the inhibition in the experiment with MCF7 [7] came to 96.3%. For the same compound, the half-maximal inhibitory concentration (IC50) in experiment [9] came to 22.4 µM; in the experiment with MCF7 [1], 2.21 µM.
`CC(=O)Oc1c(Br)cc(Br)cc1/C=C(/NC(=O)c1ccccc1)C(=O)NNC(N)=S` came in with a 50% inhibitory concentration (IC50) with MCF7 [1] of 16.8 µM.
Same read-out and setting: in the case of `CC(=O)Oc1c(Br)cc(Br)cc1/C=C1\N=C(c2ccccc2)N(c2ccccc2)NC1=O` it was 19.4 µM.
Still for that read-out and setting: in the case of `COc1ccc(C2=N/C(=C\c3cc(Br)cc(Br)c3OC(C)=O)C(=O)NN2c2ccccc2)cc1OC` it was 5.39 µM.
As for `CC(=O)Oc1c(Br)cc(Br)cc1/C=C1\N=C(c2ccccc2)N(C(N)=S)NC1=O`, the half-maximal inhibitory concentration (IC50) is 80.1 µM in experiment [9] and 28.5 µM with MCF7 [1].
On to `COc1cc(C2=N/C(=C\c3cc(Br)cc(Br)c3OC(C)=O)C(=O)NN2c2ncc(-c3ccccc3)s2)cc(OC)c1OC`, for which the Ratio IC50 was determined as 10.2 on DNA topoisomerase 2-beta [2] and 6 in the experiment on MCF7 [16]. For the same compound, the outcome in the experiment on MCF7 [3], in the experiment on MCF7 [12], in the experiment on MCF7 [13], in the experiment on MCF7 [14] and with MCF7 [17] was Active. For the same compound, the “fold change (FC)” value in the experiment with MCF7 [4] was determined as 1.75; with MCF7 [8], 3.4; with MCF7 [10], 9.2; with MCF7 [20] it was 15.6. Moreover, the Activity is 3.31% with MCF7 [5]; 84.46% in the experiment with MCF7 [6]; 3.64% in the experiment with MCF7 [18]; 6.33% in the experiment with MCF7 [19]; 7.79% in the experiment with MCF7 [21]. The inhibition with MCF7 [7] turned out to be 55.2%. In addition, the IC50 in experiment [9] is 77.4 µM; on DNA topoisomerase 2-beta [11] it was 0.00685 µM; in the experiment on MCF7 [1], 0.41 µM.
The compound `CC(=O)Oc1c(Br)cc(Br)cc1/C=C1\N=C(c2ccccc2)N(c2ncc(-c3ccc(Br)cc3)s2)NC1=O` returned an IC50 in the experiment with MCF7 [1] of 9.49 µM.

The record behind these values is ChEMBL document CHEMBL4152338, “Design, synthesis and screening of 1, 2, 4-triazinone derivatives as potential antitumor agents with apoptosis inducing activity on MCF-7 breast cancer cell line” (Eur J Med Chem, 2018).
